In data set [1] the test system is MDA-MB-453 cells. In words: Apoptosis: caspase 3 activity. The format is cell-based, human. Particulars: actein 2 μg/ml, Herceptin 16 μg/ml, 48 h.
For the next data set, the system named is activated Her2 (p-Her2). As to the kind of experiment: Western blot analysis of activated Her2 protein level. The data set is classed as cell-based. The settings on record: 40 μg/ml, 24 h, normalized to β-acetin. The text has this: (§1) Effect of actein on the level of Her2 protein: The effect of actein on the level of Her2 and activated Her2 (p-Her2) protein was examined using Western blot analysis. […] The results validate an effect of actein on the Her2 pathway.
On the technique in general: A western blot detects proteins with antibodies after separation by electrophoresis.

A further data set relates to MCF10F. As to the kind of experiment: Growth inhibition of nonmalignant mammary epithelial cells by actein. The format is cell-based, human.
For data set [2], the system named is MDA-MB-453 cells. In words: Apoptosis: DNA fragmentation. The format is cell-based, human. Particulars: actein 2 μg/ml, Herceptin 16 μg/ml, 48 h.
In another data set the test system is Her2. As to the kind of experiment: Western blot analysis of Her2 protein level. The format is cell-based. Particulars: 40 μg/ml, 24 h, normalized to β-acetin.
Description: as §1

Another data set has as its system calcium channels. As to the kind of experiment: Calcium release from cells. The settings on record: low concentrations (100 nM); stated as believed mode of action. The data set is classed as cell-based.
The conditions of data set [3]: rat, in vivo, 35.7 mg/kg; cited from earlier work.

≈ marks a conversion by molar mass, not a printed value.

Turning to `CC(=O)O[C@@H]1C[C@@]23C[C@@]24CC[C@H](O[C@@H]2OC[C@@H](O)[C@H](O)[C@H]2O)C(C)(C)[C@@H]4CC[C@H]3[C@]2(C)C[C@@H]3O[C@]4(C[C@@H](C)[C@@H]3[C@@]12C)O[C@H](O)[C@@]1(C)O[C@@H]41` [actein, Actein], in the data set on MDA-MB-453 cells [1], the “caspase 3 activity” value was 1.29 fold relative to control. In the data set with activated Her2 (p-Her2), the “level of p-Her2 protein” value was found to be 0.37 fold. Besides, the half-maximal inhibitory concentration (IC50) (as a rule, the concentration that inhibits the measured activity by half) in the data set with MCF10F turned out to be 42 µg/mL (≈ 62.1 µM). Further, the DNA fragmentation with MDA-MB-453 cells [2] is recorded as 0.89 fold relative to control. Moreover, the “level of Her2 protein” value with Her2 was determined as 0.72 fold. The “effect on calcium channels” value in the data set with calcium channels is “immediately opens calcium channels and releases calcium from cells”. In data set [3], the peak serum level result is listed as “about 2.4 μg/ml” and the “time of peak serum level” value is 6 h.

The record behind these values is patent US9643995B2, “Triterpene glycoside and triterpene compositions and methods of using same” (Research Foundation of the City University of New York, priority 2013, dated 2017).
